{
  "source": "patent US5780489A",
  "about": "“Method for treating amyotrophic lateral sclerosis” (priority 1996, dated 1998)",
  "key": {"[1]": {"conditions": "esterase activity absent in human plasma; cited from earlier work"}, "[2]": {"conditions": "by an esterase; cited from earlier work"}, "human cells": {"tested_on": "human cells", "conditions": "cited from earlier work"}, "[3]": {"tested_on": "rat cerebrospinal fluid (CSF)", "conditions": "Shikama et al. 1995, cited from earlier work; for rate of uptake into rat cerebrospinal fluid: GSH versus GSH isopropyl ester"}, "cellular ischemia": {"tested_on": "cellular ischemia", "conditions": "H Shikama et al., 1995; cited from earlier work"}, "[4]": {"tested_on": "γ-glutamyl transpeptidase", "conditions": "proposed by Shikama et al.; cited from earlier work"}, "cells [5]": {"tested_on": "cells", "conditions": "cited from earlier work"}, "cells [6]": {"tested_on": "cells", "conditions": "Puri and Meister, 1983; cited from earlier work"}, "[7]": {"conditions": "Meister et al., 1986; cited from earlier work"}, "[8]": {"conditions": "Meister et al., 1986; cited from earlier work", "remark": "listed apart in the source"}, "[9]": {"tested_on": "chronic organotypic spinal cord cultures", "conditions": "in vitro, after SOD1 anti-sense oligonucleotides; cited from earlier work"}, "ALS patients [10]": {"tested_on": "ALS patients", "conditions": "cited from earlier work; for survival in ALS (in words): human, in vivo"}, "[11]": {"conditions": "B Olsson et al., 1988; cited from earlier work"}, "GSH levels in rat brains": {"tested_on": "GSH levels in rat brains", "conditions": "cited from earlier work"}, "5-oxoprolinase": {"tested_on": "5-oxoprolinase", "conditions": "cited from earlier work"}, "adverse experiences": {"experiment": "adverse experiences", "type": "in vivo, human", "conditions": "only minor", "text": "The risk of any of these side effects occurring is small; however, should they occur, the dose of medication is reduced or discontinued entirely. However, OTZ is an experimental drug and unexpected side effects may occur."}, "[12]": {"tested_on": "GSH levels in some cell types", "conditions": "Williamson et al. 1981; cited from earlier work"}, "patients with ALS": {"tested_on": "patients with ALS", "experiment": "progression of ALS, phase II trial of OTZ and Riluzole versus Riluzole alone", "type": "in vivo, human", "conditions": "9 months, 3000 mg p.o. t.i.d.", "experimental": "5.3. OTZ in ALS Patients: Phase II Trial\nA phase II, bi-center, double-blind randomized controlled comparison trial of the efficacy of OTZ and the anti-glutamate agent, Riluzole, versus Riluzole alone in slowing of disease progression in patients with ALS (50 at each center) is performed. Patients receive treatment for 9 months. Riluzole is approved for marketing by the FDA.\nThe OTZ and placebo capsules are identical in appearance. Riluzole is administered as tablets obtained from the manufacturer. Riluzole is administered at 50 mg bid to all subjects. The OTZ dose is the same as used in the Phase I study, 3000 mg p.o. t.i.d. However, the final determination of OTZ dose may be modified. Half the subjects receive active OTZ capsules and the other half receive identical appearing placebo capsules.\nThe primary outcome measure is change in motor and pulmonary function after 9 months of experimental therapy as tested with the Tufts Quantitative Neuromuscular Exam ([…]) and FVC. The secondary outcome measure is based upon ALS Functional Rating Scores.\nAnalysis is done on an intention to treat basis. The primary analysis tests the difference in average slopes of arm megascores between the OTZ and Riluzole combination and Riluzole alone groups using a two-way ANOVA with treatment and center in the model, with a two-sided alpha=0.05. […]"}, "[13]": {"experiment": "OTZ pharmacokinetics (plasma elimination and oral absorption)", "type": "in vivo, human", "experimental": "The synthesis of glutathione, an endogenous antioxidant, is often limited by the supply of intracellular cysteine, one of the component amino acids of glutathione. […] Some of these patients continued taking OTZ capsules (up to 9 grams/day) for over two years.\nSubjects with ALS were enrolled in a tolerability, pharmacokinetics and pharmacodynamics study of OTZ in ALS patients. In this study, glutathione and cysteine levels in whole blood and CSF and OTZ pharmacokinetics were determined in ten to twenty subjects with ALS. Blood was obtained for baseline glutathione and cysteine levels. A spinal catheter was inserted and baseline CSF samples collected for determination of glutathione and cysteine levels. OTZ (90 ml 5% OTZ injection=4500 mg OTZ) was administered by intravenous infusion through a peripheral vein over 60±10 minutes. At various time points after the start of the OTZ infusion, blood and CSF samples were drawn for determination of OTZ and glutathione levels. The following day, subjects started taking OTZ capsules (3000 mg t.i.d.) for 28 days. After 7 and 14 days of treatment with OTZ capsules, blood was drawn for analyses of safety parameters, glutathione, cysteine and OTZ levels. On the last day of the treatment period, blood and CSF samples were drawn for analysis of OTZ, glutathione, and cysteine levels. The study endpoints were tolerability, and pharmacokinetic and pharmacodynamic data. Safety was determined by clinical history and examination, quantitative neuromuscular examination and a panel of safety laboratory tests. Nine subjects completed the study and samples are analyzed. In addition, CSF was drawn from patients without severe neurological disorders and the GSH levels are analyzed and compared to the levels for ALS patients."}, "[14]": {"tested_on": "intracellular glutathione levels", "conditions": "cited from earlier work"}, "[15]": {"tested_on": "transgenic mice which overexpress the mutant SOD1 protein", "conditions": "small, but statistically significant; cited from earlier work"}, "ALS patients [16]": {"tested_on": "ALS patients", "conditions": "two controlled studies; cited from earlier work"}, "[17]": {"conditions": "in vivo; cited from earlier work"}, "[18]": {"tested_on": "glutamate release at pre-synaptic terminals", "conditions": "cited from earlier work"}},
  "note": "Entries after “also recorded” stand apart in the source; their conditions may differ. Read-outs that look alike come from different tables or passages of the source.",
  "data": [
    {"smiles": "CCOC(=O)CNC(=O)[C@H](CS)NC(=O)CC[C@H](N)C(=O)OCC", "note": "[GSH diethylester]", "values": [
      {"measurement": "stability in human blood", "setting": "[1]", "result": "stable in human blood"},
      {"measurement": "conversion to monoethyl (glycyl) ester in rodent blood plasma", "setting": "[2]", "result": "readily converted to monoethyl (glycyl) ester in rodent blood plasma"},
      {"measurement": "entry into human cells", "setting": "human cells", "result": "even more efficiently transported into human cells than the monoester"},
      {"measurement": "intracellular GSH levels in human cells", "setting": "human cells", "result": "increase of intracellular GSH levels"}
    ]},
    {"smiles": "CC(C)OC(=O)CNC(=O)[C@H](CS)NC(=O)CC[C@H](N)C(=O)O", "note": "[GSH isopropyl ester, glutathione isopropyl ester]", "values": [
      {"measurement": "rate of uptake into rat cerebrospinal fluid", "setting": "[3]", "result": "the same"},
      {"measurement": "total GSH (sum of GSH and GSH ester) in rat CSF", "setting": "[3]", "result": "only the ester increased the total GSH"},
      {"measurement": "stability in CSF", "setting": "[3]; versus GSH", "result": "more stable that GSH in the CSF"},
      {"measurement": "protection against cellular ischemia", "setting": "cellular ischemia", "result": "provide protection against cellular ischemia"},
      {"measurement": "affinity for γ-glutamyl transpeptidase", "setting": "[4]", "result": "reduced affinity"}
    ]},
    {"smiles": "CCOC(=O)CNC(=O)[C@H](CS)NC(=O)CC[C@H](N)C(=O)O", "note": "[GSH monoethylester]", "values": [
      {"measurement": "entry into human cells", "setting": "human cells", "result": "able to enter human cells"},
      {"measurement": "intracellular GSH levels in human cells", "setting": "human cells", "result": "increase in GSH levels"}
    ]},
    {"smiles": "N[C@@H](CCC(=O)N[C@@H](CS)C(=O)NCC(=O)O)C(=O)O", "note": "[GSH, L-γ-glutamyl-L-cysteinylglycine]", "values": [
      {"measurement": "effect of administration on intracellular GSH levels", "setting": "cells [5]; Meister, U.S. Pat. No. 4,879,370", "result": "has not led to increased intracellular GSH levels"},
      {"measurement": "transport into cells", "setting": "cells [5]", "result": "not transported efficiently into cells; also recorded: not efficiently transported into most animal cells"},
      {"measurement": "rate of uptake into rat cerebrospinal fluid", "setting": "[3]", "result": "the same"},
      {"measurement": "protection of cells against toxic compounds", "setting": "cells [6]", "result": "can protect some cells against toxic compounds"}
    ]},
    {"smiles": "N[C@@H](CS)C(=O)O", "note": "[L-cysteine]", "values": [
      {"measurement": "transport into cells", "setting": "cells [5]", "result": "not transported efficiently into cells"},
      {"measurement": "transport into cells", "setting": "cells [5]; listed as cysteine", "result": "not efficiently transported into most animal cells"},
      {"measurement": "toxicity of high extracellular levels", "setting": "[7]", "result": "high extracellular levels of cysteine can be toxic"},
      {"measurement": "oxidation at neutral pH", "setting": "[8]", "result": "oxidized spontaneously at neutral pH"}
    ]},
    {"smiles": "CC(=O)N[C@@H](CS)C(=O)O", "note": "[N-acetylcysteine (NAC), N-acetylcysteine]", "values": [
      {"measurement": "reversal of death process in spinal cord cultures", "setting": "[9]", "result": "reversed"},
      {"measurement": "survival in ALS (in words)", "setting": "ALS patients [10]", "result": "trend towards increasing survival in ALS patients"},
      {"measurement": "bioavailability in human studies", "setting": "[11]", "result": "low bioavailability"}
    ]},
    {"smiles": "O=C1N[C@H](C(=O)O)CS1", "note": "[OTZ, L-2-oxothiazolidine-4-carboxylic acid]", "values": [
      {"measurement": "GSH levels in rat brains", "setting": "GSH levels in rat brains; Anderson and Meister 1989", "result": "no effect or only slightly increased GSH levels"},
      {"measurement": "level of GSH in rat brains", "setting": "GSH levels in rat brains; subcutaneous injections, Mesina et al. 1989", "result": "statistically significant increase in the level of GSH in rat brains"},
      {"measurement": "conversion to cysteine (enzyme required)", "setting": "5-oxoprolinase", "result": "requires the enzyme 5-oxoprolinase"},
      {"measurement": "metabolism by 5-oxo-L-prolinase", "setting": "5-oxoprolinase; in vitro, in the presence of adenosine triphosphate", "result": "subjected to the action of 5-oxo-L-prolinase in the presence of adenosine triphosphate to produce S-carboxyl cysteine"},
      {"measurement": "adverse experiences associated with OTZ", "setting": "adverse experiences", "result": "stomach upset, dizziness, insomnia, nausea, restlessness and headache"},
      {"measurement": "increase of GSH levels in some cell types", "setting": "[12]", "result": "effective in increasing GSH levels in some cell types"},
      {"measurement": "rate of progression of ALS", "setting": "patients with ALS", "result": "slows the rate of progression of ALS"},
      {"measurement": "elimination from plasma", "setting": "[13]; after oral or intravenous administration", "result": "rapidly eliminated from plasma"},
      {"measurement": "absorption after oral administration", "setting": "[13]; oral", "result": "readily absorbed after oral administration"},
      {"measurement": "half-life", "setting": "[13]; plasma, after oral or intravenous administration, read-out: T1/2 (elimination from plasma)", "result": "1 to 2", "unit": "h"},
      {"measurement": "intracellular glutathione levels in animal models", "setting": "[14]", "result": "increases intracellular glutathione levels in animal models"}
    ]},
    {"smiles": "Nc1nc2ccc(OC(F)(F)F)cc2s1", "note": "[Riluzole]", "values": [
      {"measurement": "prolongation of survival in transgenic SOD1 mutant mice", "setting": "[15]", "result": 11, "unit": "%"},
      {"measurement": "improvement in strength", "setting": "ALS patients [16]", "result": "without a concomitant improvement in strength"},
      {"measurement": "known adverse experiences associated with Riluzole therapy", "setting": "[17]", "result": "asthenia, fatigue and asymptomatic elevation of liver function tests"},
      {"measurement": "prolongation of survival of ALS patients", "setting": "ALS patients [10]; G Bensimon et al., 1994", "result": 12, "unit": "%"},
      {"measurement": "survival in ALS (in words)", "setting": "ALS patients [10]", "result": "extend survival in ALS; also recorded: improve survival in ALS; also recorded: small affect on survival"},
      {"measurement": "prolongation of lifespan in patients with ALS", "setting": "ALS patients [10]; two studies, statistically significant, but small, G Bensimon et al., 1994", "result": 18, "unit": "%"},
      {"measurement": "release of glutamates at pre-synaptic terminals", "setting": "[18]", "result": "inhibits release of glutamates at pre-synaptic terminals"}
    ]}
  ]
}
